Marks after values point to notes of the source that are not given here.

Series [1] relates to SH-SY5Y cells (human neuroblastoma). Put plainly: Antiproliferative activity, 48 h treatment, ATPlite luminescence assay, SH-SY5Y. The conditions noted are these: Homo sapiens, SH-SY5Y, 48 h, read-out: Antiproliferative activity (IC50 ± S.D., μM) SHSY-5Y. It is filed as cell-based. How it is done: SH-SY5Y and SK-N-BE(2): maintained in HAM-F12 medium+10% FCS.
24 hours after seeding, an aliquot (10 μl) of the drug at the various concentrations is added (for each concentration there are 3 replicates). After 48 hours of treatment the antiproliferative effect is evaluated with a luminescence assay (Perkin Elmer Life Sciences ATPlite):
50 μl of a lysis solution are added to each well followed by an equal volume of a solution containing luciferase and D-luciferin. The ATP present in all the metabolically active cells brings about the transformation reaction of D-luciferin, catalysed by luciferase, to produce a luminescent signal as described in the following scheme: ATP+D-luciferin+O2→Oxyluciferin+AMP+PPi+CO2+Light
The luminescence produced (expressed in counts per second, CPS) is measured by means of a microplate scintillation analyzer (Perkin Elmer Life Sciences Top Count).
Percentage inhibition of luminescence in the treated cells compared to the control is calculated; concentration-response curves are then analysed using Grafit v.5.0.
(In general: ATP-based viability assays read luminescence as a measure of living cells.)

Series [2] can be described thus: Drug tolerability in H460 tumor-bearing mice (lethal toxicity). As to conditions: athymic Swiss nude, mouse, in vivo, 8 weeks. As for the experimental part: (§1) The effects of the compounds of the invention and/or topotecan on the growth of primary tumors and spontaneous lung metastasis were tested in mice inoculated s.c. in the right flank with H460 ascitic tumor cells (2×10^6/mouse). Each control or drug-treated group included 9-11 mice. The s.c. tumor growth was followed by biweekly measurements of tumor diameters with a Vernier caliper. Drug treatment was delivered orally, for 8 weeks, from day 1. Topotecan was delivered at the dose of 1 mg/kg and compounds of the invention were delivered at the dose of 30 mg/kg; in the combination group the compounds of the invention were delivered almost 1 hour after topotecan treatment. Control mice were solvent-treated orally in parallel with drug treatments.
(§2) Drug efficacy was assessed as mean percentage tumor weight inhibition in drug-treated versus control mice expressed as tumor weight inhibition % (TWI %)=100−(mean tumor weight treated/mean tumor weight control×100), evaluated during and after drug treatment. Drug tolerability was assessed in tumor-bearing mice as either lethal toxicity, i.e., any death in treated mice occurring before any control death, or percentage body weight loss (BWL %)=100−(body weight on day x/body weight on day 1×100), where x represents a day after or during the treatment period.

Series [3] has as its system HT29/Mit cells (mitoxantrone-resistant human colon carcinoma, BCRP overexpression). Put plainly: Antiproliferative activity, 72 h treatment, SRB assay, HT29/Mit. As for the experimental part: HT29 and HT29/Mit (line obtained by prolonged exposure to mitoxantrone, and characterised by overerexpression of BCRP, which confers cross resistance to topotecan, irinotecan and to its metabolite SN38): maintained in McCoy 5A medium+10% FCS.
The cells (HT29 and HT29/Mit:. 40,000 cells/ml, LoVo, LoVo/Dx and HCT116: 50,000 cells/ml) are seeded in 100 μl of the respective culture media in 96-well plates. 24 hours after seeding, an aliquot (10 μl) of drug at the various concentrations is added. In the samples in which the effect of the combination of two compounds is to be tested the inhibitor is added immediately before the cytotoxic. For each dose or combination of doses/drugs the effect of the treatment is determined in 4-8 replicates.
After 72 hours of treatment the antiproliferative effect is evaluated using the sulforhodamine B (SRB) assay: the cells are fixed by adding 25 μl of 50% TCA to each well and left for 1 hour at 4° C. After washing them with water and allowing them to dry, 100 μl of 0.4% SRB in 1% acetic acid are added and left for 30 minutes at room temperature. After 4 washes in 1% acetic acid, they are left to dry, then the dye fixed by the proteins is dissolved under basic conditions with 100 μl 10 mM cold Tris and the solution is read using a spectrophotometer at 550 nm.
Percentage cell growth is calculated as the optical density of treated samples compared to the optical density of controls (untreated cells).
The Combination Index (C.I.) was determined according to Kern's method, 1988 (who continued from Drewinko B, 1976) (Kern D. H., Cancer Res. 48, 117-121, 1988; Drewinko B., Cancer Biochem. Biophys. 1, 187-195, 1976) by means of the following formula: […], where SFa and SFb are the fractions of cells surviving to treatment with compound a and b, respectively; SFab is the fraction surviving to the combination of compounds a and b.

The next series concerns H460 primary tumor. Kind of series: H460 human non-small cell lung carcinoma xenograft, antitumor activity on the primary tumor. It is filed as in vivo, athymic Swiss nude mice. The conditions noted are these: H460 s.c., p.o. for 8 weeks, topotecan 1 mg/kg, compound of example 2 30 mg/kg. As for the experimental part:
Female athymic Swiss nude mice (8-10 weeks old) (Charles River, Calco, Italy) were used for the experiments, as described above.
H460 cells were injected i.p. into nude mice, adapted to grow as ascitis and maintained in vivo by i.p. passages (5×10^6 cells/mouse in 0.5 ml PBS) (Pratesi G., Br. J. Cancer 63, 71-74, 1991). Briefly, cells were collected from the donor mice about 7 days after inoculum. After washing, cell number and viability were determined by trypan blue exclusion. Such procedure allowed to obtain a single cell suspension easily available for s.c or i.v. injection.
as §1, §2

Series [4] has as its system HT29/Mit human colon carcinoma xenografts. Kind of series: HT29/Mit human colon carcinoma xenografts, antitumor activity. It is filed as in vivo, athymic Swiss nude mice. As to conditions: HT29/Mit xenograft, p.o.; topotecan 15 mg/Kg every 4 days for 3 administrations; compound of example 2 30 mg/kg; alone or combined. How it is done: Female athymic Swiss nude mice (8-10 weeks old) (Charles River, Calco, Italy) were used for the experiments. The animals were maintained at constant temperature and humidity, and were allowed to eat and drink freely. The experimental protocol was approved by the Ethics Committee for Animal Experimentation of the Istituto Nazionale Tumori of Milan.
The antitumour effectiveness of the compounds of the invention under discussion was tested on athymic mouse models implanted with HT29 and/or HT29/Mit tumour cells: this latter variety is highly resistant to topotecan treatment. The tumour cells were implanted in vivo via subcutaneous injection of 10^7 cells taken from in vitro cultures. Randomized groups of five mice with bilateral subcutaneous tumours were used for the experiment.
Topotecan or other known antitumour agents (dissolved in distilled water or an appropriate solvent) and the compounds of the invention (dissolved in Cremophor EL:ethanol:saline solution in the proportions 5:5:90, or in an appropriate solvent) were administered orally from the third day, alone or in combination, in agreement with a treatment scheme selected in an appropriate manner depending on the type of compound to be studied.
The weight (or volume) of the tumour in treated mice compared to controls is represented graphically on the y-axis against time (x-axis).

As for `CCOc1cc(C(=O)NC2CC(C)(C)NC(C)(C)C2)ccc1-c1cc2cc(Cl)c(Cl)cc2[nH]1` [Example 2], the IC50 in series [1] stood at 6.8 ± 0.5 µM; in series [3] (Homo sapiens, HT-29, 72 h, read-out: Antiproliferative activity (IC50 ± S.D., μM) HT-29/Mit), 0.9 ± 0.2 µM. Also, the “Tox/Tot (any death in treated mice occurring before any control mice)” value in series [2] is 0/10. The “Effect on antiproliferative activity of topotecan” value in series [3] (HT29/Mit model, subtoxic and subactive concentrations (<1 μM) of compound of example 2) is given as “enhanced antiproliferative activity of topotecan”. Further, the “Effect on cell growth of compound of example 2 alone” value in series [3] (HT29/Mit, 72 hours, 0.5 μM) is given as “does not itself inhibit cell growth”. For the same compound, the “LCK (Log10 Cell Kill)” value in the series with H460 primary tumor is 0.6. For the same compound, the “Max TWI (day 56) (Maximal Tumor weight inhibition achieved)” value with H460 primary tumor (listed as Compound of example 2) is given as 58* %; with H460 primary tumor (listed as compound of example 2), 58%. In series [4], the “Inhibition of tumour growth” value is on record as “poorly effective”.
